# Results as given in patent US9428507B2, “Compounds for the treatment of malaria” (The Broad Institute, Inc., priority 2013, dated 2016).
# Test system: Dd2 strain of P. falciparum
# Assay: Activity against the Dd2 strain of P. falciparum (SYBR Green I, 72-h incubation)
# Assay type: cell-based
# Conditions: Plasmodium falciparum, DD2, 72 h, read-out: EC^50 Dd2
# Procedure: The Dd2 strain of P. falciparum was cultured in complete medium (RPMI with L-glutamine, 4.3% heat-inactivated O-positive human serum, 2.08 mg/ml albumax, 0.013 mg/ml hypoxanthine, 1.17 mg/ml glucose, 0.18% NaHCO3, 0.031 M Hepes, 2.60 mM NaOH, and 0.043 mg/ml gentamicin) until the parasitemia reached 3-8%. Parasitemia was determined by checking at least 500 red blood cells from a Giemsa-stained blood smear. The Dd2 cultures along with tested O-positive red blood cells are centrifuged at room temperature at 2,000 rpm for 5 min using an Eppendorf centrifuge 581 OR with an A-4-81 rotor. The medium was aspirated off. For the compound screening, a parasite dilution at a 1% parasitemia and 1.0% hematocrit was created with screening medium (RPMI with L-glutamine, 4.16 mg/ml albumax II, 0.013 mg/ml hypoxanthine, 1.73 mg/ml glucose, 0.18% NaHCO3, 0.031M Hepes, 2.60 mM NaOH, and 0.043 mg/ml gentamicin). The suspension was gassed with 93% nitrogen, 4% carbon dioxide, and 3% oxygen and placed at 37° C. until needed. Using a liquid dispenser, 20 μl of screening medium was dispensed into 384-well, black, clear-bottom plates. With a PinTool, 100 nl of compounds dissolved in DMSO was transferred into the assay plates along with control compound (mefloquine). Next, 30 μl of the parasite suspension in screening medium was then dispensed into the assay plates such that the final parasitemia was 1%, and the final hematocrit was 1.0%. Final concentration of DMSO was 0.125%. Mefloquine at a final concentration of 20 μM and DMSO at a final concentration of 0.125% were used within the assay plates to serve as background and baseline controls, respectively. The assay plates were transferred to incubators (93% nitrogen, 4% carbon dioxide, and 3% oxygen during the 72-h incubation at 37° C.). Ten microliters of detection reagent consisting of 1 OX SYBR Green I (Invitrogen; supplied in 10,000× concentration) in lysis buffer (20 mM Tris-HCl, 5 mM EDTA, 0.16% Saponin wt/vol, 1.6% Triton X vol/vol) was dispensed into the assay plates. For optimal staining, the assay plates were left at room temperature for 24 h in the dark. The assay plates were read by using an Envision (PerkinElmer) reader, with 505 dichroic mirrors with 485-nm excitation and 530-nm emission settings, and the plate reads were from the bottom.
row,SMILES,EC50
1,"COc1ccc2c3c([nH]c2c1)[C@H](C)N(C(C)=O)CC31CCN(C(=O)Nc2ccccc2F)CC1 [Compound 48, (S)-2-acetyl-N-(2-fluorophenyl)-7′-methoxy-1'-methyl-1′,2′,3′,9′-tetrahydrospiro[piperidine-4,4′-pyrido[3,4-b]indole]-1-carboxamide]",214 to 236 nM
2,"CCCN1CC2(CCN(C(=O)Nc3ccccc3F)CC2)c2c([nH]c3cc(OC)ccc23)[C@@H]1CO [Compound 49, (R)-N-(2-fluorophenyl)-1′-(hydroxymethyl)-7′-methoxy-2′-propyl-1′,2′,3′,9′-tetrahydrospiro[piperidine-4,4′-pyrido[3,4-b]indole]-1-carboxamide]",2390 to 2920 nM
3,"COc1ccc2c3c([nH]c2c1)[C@H](CO)N(C(=O)c1ccccc1)CC31CCN(C(=O)Nc2ccccc2F)CC1 [Compound 50, (R)-2′-benzoyl-N-(2-fluorophenyl)-1′-(hydroxymethyl)-7′-methoxy-1′,2′,3′,9′-tetrahydrospiro[piperidine-4,4′-pyrido[3,4-b]indole]-1-carboxamide]",1240 to 2250 nM
4,"COc1ccc2c3c([nH]c2c1)[C@H](CO)N(C(C)=O)CC31CCN(C(=O)Nc2c(F)cccc2F)CC1 [Compound 51, (R)-2′-acetyl-N-(2,6-difluorophenyl)-1′-(hydroxymethyl)-7′-methoxy-1′,2′,3′,9′-tetrahydrospiro[piperidine-4,4′-pyrido[3,4-b]indole]-1-carboxamide]",177 to 235 nM
5,"COc1ccc2c3c([nH]c2c1)[C@H](CO)N(C(C)=O)CC31CCN(C(=O)Nc2cccnc2)CC1 [Compound 52, (R)-2′-acetyl-1′-(hydroxymethyl)-7′-methoxy-N-(pyridin-3-yl)-1′,2′,3′,9′-tetrahydrospiro[piperidine-4,4′-pyrido[3,4-b]indole]-1-carboxamide]",1450 to 1980 nM
6,"COc1ccc2c3c([nH]c2c1)[C@H](CO)N(S(C)(=O)=O)CC31CCN(C(=O)Nc2ccccc2F)CC1 [Compound 53, (R)-N-(2-fluorophenyl)-1′-(hydroxymethyl)-7′-methoxy-2′-(methylsulfonyl)-1′,2′,3′,9′-tetrahydrospiro[piperidine-4,4′-pyrido[3,4-b]indole]-1-carboxamide]",37 to 118 nM
7,"COc1ccc2c3c([nH]c2c1)[C@H](CO)N(C(C)=O)CC31CCN(C(=O)Nc2ccc(F)cc2F)CC1 [Compound 54, (R)-2′-acetyl-N-(2,4-difluorophenyl)-1′-(hydroxymethyl)-7′-methoxy-1′,2′,3′,9′-tetrahydrospiro[piperidine-4,4′-pyrido[3,4-b]indole]-1-carboxamide]",353 to 551 nM
8,"COc1ccc2c3c([nH]c2c1)[C@H](CO)N(C(C)=O)CC31CCN(C(=O)Nc2cc(F)ccc2F)CC1 [Compound 55, (R)-2′-acetyl-N-(2,5-difluorophenyl)-1′-(hydroxymethyl)-7′-methoxy-1′,2′,3′,9′-tetrahydrospiro [piperidine-4,4′-pyrido[3,4-b]indole]-1-carboxamide]",321 to 719 nM
9,"CCN1CC2(CCN(C(=O)OC(C)(C)C)CC2)c2c([nH]c3cc(OC)ccc23)[C@@H]1CO[Si](C)(C)C(C)(C)C [Compound 56, (R)-tert-butyl 1′-(((tert-butyldimethylsilyl)oxy)methyl)-2′-ethyl-7′-methoxy-1′,2′,3′,9′-tetrahydrospiro [piperidine-4,4′-pyrido[3,4-b]indole]-1-carboxylate]",1040 to 8770 nM
10,"COc1ccc2c3c([nH]c2c1)[C@H](CO)N(C(C)=O)CC31CCN(C(=O)Nc2ccccc2C(F)(F)F)CC1 [Compound 57, (R)-2′-acetyl-1′-(hydroxymethyl)-7′-methoxy-N-(2-(trifluoromethyl)phenyl)-1′,2′,3′,9′-tetrahydrospiro[piperidine-4,4′-pyrido[3,4-b]indole]-1-carboxamide]",577 to 1210 nM
11,"COc1ccc2c3c([nH]c2c1)[C@H](CO)N(C(C)=O)CC31CCN(C(=O)Nc2ccc(F)c(F)c2)CC1 [Compound 58, (R)-2′-acetyl-N-(3,4-difluorophenyl)-1′-(hydroxymethyl)-7′-methoxy-1′,2′,3′,9′-tetrahydrospiro[piperidine-4,4′-pyrido[3,4-b]indole]-1-carboxamide]",1440 to 1600 nM
12,"COc1ccc2c3c([nH]c2c1)[C@H](CO)N(C(C)=O)CC31CCN(S(=O)(=O)c2ccccc2F)CC1 [Compound 59, (R)-1-(1-((2-fluorophenyl)sulfonyl)-1′-(hydroxymethyl)-7′-methoxyspiro[piperidine-4,4′-pyrido[3,4-b]indol]-2′(1′H,3′H,9′H)-yl)ethanone]",1460 to 2890 nM
13,"CCN1CC2(CCN(C(=O)Nc3ccccc3F)CC2)c2c([nH]c3cc(OC)ccc23)[C@@H]1CO [Compound 60, (R)-2′-ethyl-N-(2-fluorophenyl)-1′-(hydroxymethyl)-7′-methoxy-1′,2′,3′,9′-tetrahydrospiro [piperidine-4,4′-pyrido[3,4-b]indole]-1-carboxamide]",4610 to 5790 nM
14,"COc1ccc2c3c([nH]c2c1)[C@H](CO)N(C)CC31CCN(C(=O)Nc2ccccc2F)CC1 [Compound 61, (R)-N-(2-fluorophenyl)-1′-(hydroxymethyl)-7′-methoxy-2′-methyl-1′,2′,3′,9′-tetrahydrospiro[piperidine-4,4′-pyrido[3,4-b]indole]-1-carboxamide]",3780 to 4120 nM
15,"COc1ccc2c3c([nH]c2c1)[C@H](CO)N(CC(F)(F)F)CC31CCN(C(=O)Nc2ccccc2F)CC1 [Compound 62, (R)-N-(2-fluorophenyl)-1′-(hydroxymethyl)-7′-methoxy-2′-(2,2,2-trifluoroethyl)-1′,2′,3′,9′-tetrahydrospiro[piperidine-4,4′-pyrido[3,4-b]indole]-1-carboxamide]",4490 to 9480 nM
16,"COc1ccc2c3c([nH]c2c1)[C@H](CO)N(C(C)=O)CC31CCN(C(=O)N(C)c2ccccc2F)CC1 [Compound 63, (R)-2′-acetyl-N-(2-fluorophenyl)-1′-(hydroxymethyl)-7′-methoxy-N-methyl-1′,2′,3′,9′-tetrahydrospiro[piperidine-4,4′-pyrido[3,4-b]indole]-1-carboxamide]",1700 to 2920 nM
17,"COCCOCOC[C@H]1c2[nH]c3cc(OC)ccc3c2C2(CCN(C(=O)Nc3ccccc3F)CC2)CN1C(C)=O [Compound 64, (R)-2′-acetyl-N-(2-fluorophenyl)-7′-methoxy-1′-(((2-methoxyethoxy)methoxy)methyl)-1′,2′,3′,9′-tetrahydrospiro[piperidine-4,4′-pyrido[3,4-b]indole]-1-carboxamide]",3620 nM
18,"COc1ccc2c3c([nH]c2c1)[C@H](CN1CCOCC1)N(C(C)=O)CC31CCN(C(=O)Nc2ccccc2F)CC1 [Compound 65, (S)-2′-acetyl-N-(2-fluorophenyl)-7′-methoxy-1′-(morpholinomethyl)-1′,2′,3′,9′-tetrahydrospiro[piperidine-4,4′-pyrido[3,4-b]indole]-1-carboxamide]",882 nM
19,"COc1ccc(COC[C@H]2c3[nH]c4cc(OC)ccc4c3C3(CCN(C(=O)Nc4ccccc4F)CC3)CN2C(C)=O)cc1 [Compound 66, (R)-2′-acetyl-N-(2-fluorophenyl)-7′-methoxy-1′-(((4-methoxybenzyl)oxy)methyl)-1′,2′,3′,9′-tetrahydrospiro[piperidine-4,4′-pyrido[3,4-b]indole]-1-carboxamide]",422 nM
